Measurements from patent US5294611A, “Angiotensin II receptor blocking 2,3,6 substituted quinazolinones” (American Cyanamid Company, priority 1993, dated 1994).
Read-outs that look alike come from different tables or passages of the source.

System: Angiotensin II (AII) vasopressor response
Experiment: AII Challenge: antagonism of angiotensin II vasopressor response in conscious spontaneously hypertensive rats
Type: in vivo, rat (male okamoto-Aoki SHR)
Conditions: for inhibition in vivo at 1 mg/kg / inhibition in vivo at 3 mg/kg / inhibition in vivo at 5 mg/kg: Rattus norvegicus; for inhibition in vivo at 1 mg/kg / inhibition in vivo at 3 mg/kg: iv; for inhibition in vivo at 3 mg/kg / inhibition in vivo at 5 mg/kg: read-out: Inhibition; for inhibition in vivo at 5 mg/kg: po; for Change: single SHR
Procedure, shortened: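 Read-out is the systolic pressure increase (mmHg) to i.v. angiotensin II, 0.05 and 0.1 ug/kg, compared pre- and post-dose in restrained, conscious spontaneously hypertensive male rats. Compounds administered orally, i.p. or i.v.; arterial cannula inserted under local anaesthesia.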

## CCCCc1nc2ccc([C@H]3[C@@H]4C(=O)CC[C@@H]4ON3C)cc2c(=O)n1Cc1ccc(-c2ccccc2-c2nnn[nH]2)cc1 (relative stereo) [Example 48]
0.5 h, SHR n=2, 1 mg/kg I.V., AII 0.05 mcg/kg IV, 30 min post dose
  inhibition in vivo at 1 mg/kg: 66%
0.5 h, SHR n=2, 1 mg/kg I.V., AII 0.1 mcg/kg IV, 30 min post dose
  inhibition in vivo at 1 mg/kg: 52%
0.5 h, SHR n=2, 3 mg/kg I.V., AII 0.05 mcg/kg IV, 30 min post dose
  inhibition in vivo at 3 mg/kg: 93%
0.5 h, SHR n=2, 3 mg/kg I.V., AII 0.1 mcg/kg IV, 30 min post dose
  inhibition in vivo at 3 mg/kg: 94%
1 h, SHR n=2, 1 mg/kg I.V., AII 0.05 mcg/kg IV, 60 min post dose
  inhibition in vivo at 1 mg/kg: 55%
1 h, SHR n=2, 1 mg/kg I.V., AII 0.1 mcg/kg IV, 60 min post dose
  inhibition in vivo at 1 mg/kg: 71%
1 h, SHR n=2, 3 mg/kg I.V., AII 0.05 mcg/kg IV, 60 min post dose
  inhibition in vivo at 3 mg/kg: 100%
1 h, SHR n=2, 3 mg/kg I.V., AII 0.1 mcg/kg IV, 60 min post dose
  inhibition in vivo at 3 mg/kg: 86%
2 h, SHR n=2, 1 mg/kg I.V., AII 0.05 mcg/kg IV, 120 min post dose
  inhibition in vivo at 1 mg/kg: 49%
2 h, SHR n=2, 1 mg/kg I.V., AII 0.1 mcg/kg IV, 120 min post dose
  inhibition in vivo at 1 mg/kg: 31%
2 h, SHR n=2, 3 mg/kg I.V., AII 0.05 mcg/kg IV, 120 min post dose
  inhibition in vivo at 3 mg/kg: 89%
2 h
  inhibition in vivo at 3 mg/kg: 82%
3 h, SHR n=2, 1 mg/kg I.V., AII 0.05 mcg/kg IV, 180 min post dose
  inhibition in vivo at 1 mg/kg: 38%
3 h, SHR n=2, 1 mg/kg I.V., AII 0.1 mcg/kg IV, 180 min post dose
  inhibition in vivo at 1 mg/kg: 38%
3 h, SHR n=2, 3 mg/kg I.V., AII 0.05 mcg/kg IV, 180 min post dose
  inhibition in vivo at 3 mg/kg: 60%
3 h, SHR n=2, 3 mg/kg I.V., AII 0.1 mcg/kg IV, 180 min post dose
  inhibition in vivo at 3 mg/kg: 47%
4 h, SHR n=2, 1 mg/kg I.V., AII 0.05 mcg/kg IV, 240 min post dose
  inhibition in vivo at 1 mg/kg: 26%
4 h, SHR n=2, 1 mg/kg I.V., AII 0.1 mcg/kg IV, 240 min post dose
  inhibition in vivo at 1 mg/kg: 32%
4 h, SHR n=2, 3 mg/kg I.V., AII 0.05 mcg/kg IV, 240 min post dose
  inhibition in vivo at 3 mg/kg: 60%
4 h, SHR n=2, 3 mg/kg I.V., AII 0.1 mcg/kg IV, 240 min post dose
  inhibition in vivo at 3 mg/kg: 47%
5 h, SHR n=2, 1 mg/kg I.V., AII 0.05 mcg/kg IV, 300 min post dose
  inhibition in vivo at 1 mg/kg: 18%
5 h, SHR n=2, 1 mg/kg I.V., AII 0.1 mcg/kg IV, 300 min post dose
  inhibition in vivo at 1 mg/kg: 30%
5 h, SHR n=2, 3 mg/kg I.V., AII 0.05 mcg/kg IV, 300 min post dose
  inhibition in vivo at 3 mg/kg: 47%
5 h, SHR n=2, 3 mg/kg I.V., AII 0.1 mcg/kg IV, 300 min post dose
  inhibition in vivo at 3 mg/kg: 35%
[…], SHR n=2, 1 mg/kg I.V., AII 0.05 mcg/kg IV, 90 min post dose
  inhibition in vivo at 1 mg/kg: 40%
[…], SHR n=2, 1 mg/kg I.V., AII 0.1 mcg/kg IV, 90 min post dose
  inhibition in vivo at 1 mg/kg: 52%
[…], SHR n=2, 3 mg/kg I.V., AII 0.05 mcg/kg IV, 90 min post dose
  inhibition in vivo at 3 mg/kg: 87%
[…], SHR n=2, 3 mg/kg I.V., AII 0.1 mcg/kg IV, 90 min post dose
  inhibition in vivo at 3 mg/kg: 76%
0.5 h, SHR n=2, 5 mg/kg P.O., AII 0.05 mcg/kg IV, 30 min post dose
  inhibition in vivo at 5 mg/kg: 76%
0.5 h, SHR n=2, 5 mg/kg P.O., AII 0.1 mcg/kg IV, 30 min post dose
  inhibition in vivo at 5 mg/kg: 66%
1 h, SHR n=2, 5 mg/kg P.O., AII 0.05 mcg/kg IV, 60 min post dose
  inhibition in vivo at 5 mg/kg: 76%
1 h, SHR n=2, 5 mg/kg P.O., AII 0.1 mcg/kg IV, 60 min post dose
  inhibition in vivo at 5 mg/kg: 74%
2 h, SHR n=2, 5 mg/kg P.O., AII 0.05 mcg/kg IV, 120 min post dose
  inhibition in vivo at 5 mg/kg: 90%
2 h, SHR n=2, 5 mg/kg P.O., AII 0.1 mcg/kg IV, 120 min post dose
  inhibition in vivo at 5 mg/kg: 89%
3 h, SHR n=2, 5 mg/kg P.O., AII 0.1 mcg/kg IV, 180 min post dose
  inhibition in vivo at 5 mg/kg: 74%
3 h
  inhibition in vivo at 5 mg/kg: 82%
4 h, SHR n=2, 5 mg/kg P.O., AII 0.05 mcg/kg IV, 240 min post dose
  inhibition in vivo at 5 mg/kg: 94%
4 h, SHR n=2, 5 mg/kg P.O., AII 0.1 mcg/kg IV, 240 min post dose
  inhibition in vivo at 5 mg/kg: 79%
5 h, SHR n=2, 5 mg/kg P.O., AII 0.05 mcg/kg IV, 300 min post dose
  inhibition in vivo at 5 mg/kg: 93%
5 h, SHR n=2, 5 mg/kg P.O., AII 0.1 mcg/kg IV, 300 min post dose
  inhibition in vivo at 5 mg/kg: 79%
[…], SHR n=2, 5 mg/kg P.O., AII 0.05 mcg/kg IV, 90 min post dose
  inhibition in vivo at 5 mg/kg: 79%
[…], SHR n=2, 5 mg/kg P.O., AII 0.1 mcg/kg IV, 90 min post dose
  inhibition in vivo at 5 mg/kg: 85%
SHR n=2, 1 mg/kg I.V., AII 0.05 mcg/kg IV, 30 min post dose
  Average Change: 15 mmHg
SHR n=2, 1 mg/kg I.V., AII 0.05 mcg/kg IV, 60 min post dose
  Average Change: 20 mmHg
SHR n=2, 1 mg/kg I.V., AII 0.05 mcg/kg IV, 90 min post dose
  Average Change: 26.5 mmHg
SHR n=2, 1 mg/kg I.V., AII 0.05 mcg/kg IV, 120 min post dose
  Average Change: 22.5 mmHg
SHR n=2, 1 mg/kg I.V., AII 0.05 mcg/kg IV, 180 min post dose
  Average Change: 27.5 mmHg
SHR n=2, 1 mg/kg I.V., AII 0.05 mcg/kg IV, 240 min post dose
  Average Change: 32.5 mmHg
SHR n=2, 1 mg/kg I.V., AII 0.05 mcg/kg IV, 300 min post dose
  Average Change: 36 mmHg
SHR n=2, 1 mg/kg I.V., AII 0.1 mcg/kg IV, 30 min post dose
  Average Change: 25 mmHg
SHR n=2, 1 mg/kg I.V., AII 0.1 mcg/kg IV, 60 min post dose
  Average Change: 15 mmHg
SHR n=2, 1 mg/kg I.V., AII 0.1 mcg/kg IV, 90 min post dose
  Average Change: 25 mmHg
SHR n=2, 1 mg/kg I.V., AII 0.1 mcg/kg IV, 120 min post dose
  Average Change: 36 mmHg
SHR n=2, 1 mg/kg I.V., AII 0.1 mcg/kg IV, 180 min post dose
  Average Change: 32.5 mmHg
SHR n=2, 1 mg/kg I.V., AII 0.1 mcg/kg IV, 240 min post dose
  Average Change: 35.5 mmHg
SHR n=2, 1 mg/kg I.V., AII 0.1 mcg/kg IV, 300 min post dose
  Average Change: 36.5 mmHg
SHR n=2, 3 mg/kg I.V., AII 0.05 mcg/kg IV, 30 min post dose
  Average Change: 2.5 mmHg
SHR n=2, 3 mg/kg I.V., AII 0.05 mcg/kg IV, 60 min post dose
  Average Change: 0 mmHg
SHR n=2, 3 mg/kg I.V., AII 0.05 mcg/kg IV, 90 min post dose
  Average Change: 5 mmHg
SHR n=2, 3 mg/kg I.V., AII 0.05 mcg/kg IV, 120 min post dose
  Average Change: 4 mmHg
SHR n=2, 3 mg/kg I.V., AII 0.05 mcg/kg IV, 180 min post dose
  Average Change: 15 mmHg
SHR n=2, 3 mg/kg I.V., AII 0.05 mcg/kg IV, 240 min post dose
  Average Change: 15 mmHg
SHR n=2, 3 mg/kg I.V., AII 0.05 mcg/kg IV, 300 min post dose
  Average Change: 20 mmHg
SHR n=2, 3 mg/kg I.V., AII 0.1 mcg/kg IV, 30 min post dose
  Average Change: 2.5 mmHg
SHR n=2, 3 mg/kg I.V., AII 0.1 mcg/kg IV, 60 min post dose
  Average Change: 6 mmHg
SHR n=2, 3 mg/kg I.V., AII 0.1 mcg/kg IV, 90 min post dose
  Average Change: 10 mmHg
SHR n=2, 3 mg/kg I.V., AII 0.1 mcg/kg IV, 120 min post dose
  Average Change: 7.5 mmHg
SHR n=2, 3 mg/kg I.V., AII 0.1 mcg/kg IV, 180 min post dose
  Average Change: 22.5 mmHg
SHR n=2, 3 mg/kg I.V., AII 0.1 mcg/kg IV, 240 min post dose
  Average Change: 22.5 mmHg
SHR n=2, 3 mg/kg I.V., AII 0.1 mcg/kg IV, 300 min post dose
  Average Change: 27.5 mmHg
SHR n=2, 5 mg/kg P.O., AII 0.05 mcg/kg IV, 30 min post dose
  Average Change: 10 mmHg
SHR n=2, 5 mg/kg P.O., AII 0.05 mcg/kg IV, 60 min post dose
  Average Change: 10 mmHg
SHR n=2, 5 mg/kg P.O., AII 0.05 mcg/kg IV, 90 min post dose
  Average Change: 8.5 mmHg
SHR n=2, 5 mg/kg P.O., AII 0.05 mcg/kg IV, 120 min post dose
  Average Change: 4 mmHg
SHR n=2, 5 mg/kg P.O., AII 0.05 mcg/kg IV, 180 min post dose
  Average Change: 7.5 mmHg
SHR n=2, 5 mg/kg P.O., AII 0.05 mcg/kg IV, 240 min post dose
  Average Change: 2.5 mmHg
SHR n=2, 5 mg/kg P.O., AII 0.05 mcg/kg IV, 300 min post dose
  Average Change: 3 mmHg
SHR n=2, 5 mg/kg P.O., AII 0.1 mcg/kg IV, 30 min post dose
  Average Change: 16 mmHg
SHR n=2, 5 mg/kg P.O., AII 0.1 mcg/kg IV, 60 min post dose
  Average Change: 12.5 mmHg
SHR n=2, 5 mg/kg P.O., AII 0.1 mcg/kg IV, 90 min post dose
  Average Change: 7 mmHg
SHR n=2, 5 mg/kg P.O., AII 0.1 mcg/kg IV, 120 min post dose
  Average Change: 5 mmHg
SHR n=2, 5 mg/kg P.O., AII 0.1 mcg/kg IV, 180 min post dose
  Average Change: 12.5 mmHg
SHR n=2, 5 mg/kg P.O., AII 0.1 mcg/kg IV, 240 min post dose
  Average Change: 10 mmHg
SHR n=2, 5 mg/kg P.O., AII 0.1 mcg/kg IV, 300 min post dose
  Average Change: 10 mmHg
1 mg/kg I.V., AII 0.05 mcg/kg IV, 30 min post dose
  Change: 15 mmHg
1 mg/kg I.V., AII 0.05 mcg/kg IV, 60 min post dose
  Change: 20 mmHg
1 mg/kg I.V., AII 0.1 mcg/kg IV, 30 min post dose
  Change: 25 mmHg
1 mg/kg I.V., AII 0.1 mcg/kg IV, 60 min post dose
  Change: 15 mmHg
3 mg/kg I.V., AII 0.05 mcg/kg IV, 60 min post dose
  Change: 0 mmHg
3 mg/kg I.V., AII 0.05 mcg/kg IV, 90 min post dose
  Change: 5 mmHg
3 mg/kg I.V., AII 0.05 mcg/kg IV, 180 min post dose
  Change: 15 mmHg
3 mg/kg I.V., AII 0.05 mcg/kg IV, 240 min post dose
  Change: 15 mmHg
5 mg/kg P.O., AII 0.1 mcg/kg IV, 240 min post dose
  Change: 10 mmHg
5 mg/kg P.O., AII 0.1 mcg/kg IV, 300 min post dose
  Change: 10 mmHg
